According to patent US20050222402A1, “Dna encoding rat bombesin receptor subtype-3 (brs-3) and uses thereof” (priority 2001, published 2005):
Non-standard residues stand in square brackets, D forms with d. Residues, ends and D or L forms follow the SMILES beside them. Nle = CCCC[C@H](N)C(=O)O; βAla = NCCC(=O)O

Tests used:
[1] = target: T1, human BRS-3 (Homo sapiens, UniProt P32247); assay: Radioligand binding assay with 125I-dYB
T1 construct: expressed in transfected cells; host or cells: 293EBNA cells, pE3 expression vector
T1 sequence (P32247 1-399): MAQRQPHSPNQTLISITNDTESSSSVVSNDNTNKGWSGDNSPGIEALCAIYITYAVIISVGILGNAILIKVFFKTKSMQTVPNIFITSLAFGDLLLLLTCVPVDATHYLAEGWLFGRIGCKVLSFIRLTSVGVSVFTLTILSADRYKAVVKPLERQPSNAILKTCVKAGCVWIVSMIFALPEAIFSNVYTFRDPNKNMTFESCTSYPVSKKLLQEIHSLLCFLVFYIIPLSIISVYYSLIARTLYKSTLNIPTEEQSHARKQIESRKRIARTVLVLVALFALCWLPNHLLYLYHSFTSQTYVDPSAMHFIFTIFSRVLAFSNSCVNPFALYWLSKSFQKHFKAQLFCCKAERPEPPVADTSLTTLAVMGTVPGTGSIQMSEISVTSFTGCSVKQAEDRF
Experimental: (§1) Peptide dYB (dY-Q-W-A-V-(beta-A)-H-F-Nle-amide) (SEQ ID NO:10) was made by Research Genetics (Huntsville, Ala.) and custom labeled by NEN Life Science (NEN, Boston, Mass.) with a ^125I on the dY phenyl ring. The specific activity of ^125I-dYB is 2200 ci/mmol. The 293EBNA cells expressing wild type or mutant BRS-3 grown in 150-mm^2 dishes were harvested in binding buffer (50 mM HEPES, pH 7.4, 5 mM MgCl2, 0.1% BSA) and disrupted with Dounce homogenization.
(§2) After removal of cell nuclei by a low speed centrifugation (1000×g) step, the cell membrane proteins were collected by centrifugation at 35,000×g for 20 minutes. The membrane protein concentration was determined by the Bradford method using BSA as standard.
(§3) For binding assays, ˜20 ug membrane proteins were incubated with 0.25 nM ^125I-dYB and various concentrations of competitors in 200 ul binding buffer. After a 2 hr incubation at room temperature, the binding reaction was terminated by filtering through a GF/c filter-mate and washing the filter with binding buffer using Packard 96-well Topcount Harvester. The amount of radioligand bound to the receptor was determined by measurement of the radioactivity on the filter through liquid scintillation counting. The non-specific binding was defined as the binding in the presence of 1 uM unlabeled dYB.

[2] = target: T2, rat BRS-3 (Rattus norvegicus, UniProt Q8K418); assay: Radioligand binding assay with 125I-dYB
T2 construct: utilized to PCR amplify full-length rat BRS-3 cDNA; expressed in transfected cells; host or cells: 293EBNA cells, pE3 expression vector
T2 sequence (Q8K418 1-399): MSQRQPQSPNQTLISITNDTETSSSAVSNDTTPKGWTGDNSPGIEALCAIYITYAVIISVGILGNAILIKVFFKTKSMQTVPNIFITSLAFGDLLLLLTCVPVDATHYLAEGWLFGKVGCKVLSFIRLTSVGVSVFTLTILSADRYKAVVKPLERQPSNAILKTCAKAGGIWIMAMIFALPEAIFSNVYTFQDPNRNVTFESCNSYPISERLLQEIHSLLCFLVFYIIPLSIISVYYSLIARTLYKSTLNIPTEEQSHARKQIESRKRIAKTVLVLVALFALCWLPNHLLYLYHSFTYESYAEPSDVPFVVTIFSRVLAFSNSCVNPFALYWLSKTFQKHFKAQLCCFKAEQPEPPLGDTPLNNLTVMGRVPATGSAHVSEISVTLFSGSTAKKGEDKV
Experimental: as §1, §2, §3

Row | Structure (SMILES) | Ki [1] | specific binding to rat BRS-3 [2]
1 | CCCC[C@H](NC(=O)[C@H](Cc1ccccc1)NC(=O)[C@H](Cc1cnc[nH]1)NC(=O)CCNC(=O)[C@@H](NC(=O)[C@H](C)NC(=O)[C@H](Cc1c[nH]c2ccccc12)NC(=O)[C@H](CCC(N)=O)NC(=O)[C@H](N)Cc1ccc(O)cc1)C(C)C)C(N)=O [dYB, [D-Tyr6-betaAla11-Phe13-Nle14] bombesin (6-14)] (H-[dY]QWAV[βAla]HF[Nle]-NH2) | 1.8 ± 0.6 nM | 
2 | CCCC[C@H](NC(=O)[C@H](Cc1ccccc1)NC(=O)[C@H](Cc1c[nH]cn1)NC(=O)CCNC(=O)[C@@H](NC(=O)[C@H](C)NC(=O)[C@H](Cc1c[nH]c2ccccc12)NC(=O)[C@H](CCC(N)=O)NC(=O)[C@H](N)Cc1ccc(O)cc1)C(C)C)C(N)=O [dYB, [D-Tyr6-betaAla11-Phe13-Nle14] bombesin (6-14)] (H-[dY]QWAV[βAla]HF[Nle]-NH2) |  | undetectable
